The source made the active and inactive calls.
Tests used:
Vero [1] = assay: Vero cell viability after compound exposure – synthesized analogs, set II, cytotoxicity control for West Nile virus antiviral project, SAR follow-up (AID 2402); assay type: functional; details: Chlorocebus sabaeus
[2] = Trypanosoma cruzi growth suppression in host cells – NIH3T3 host cells, beta-gal luminescence, confirmation (AID 2044); assay type: functional, cell-based;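 note: intracellular parasites grown in NIH/3T3 mouse fibroblasts as host cells; luminescent beta-galactosidase reporter signal from transgenic T. cruzi replicating inside host cells; inhibitors lower the luminescence signal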
Vero [3] = assay: cells; assay type: functional; details: Chlorocebus sabaeus
Vero [4] = assay: mammalian cell viability reduction – secondary assay, cytotoxicity control for West Nile virus antiviral project, dose response (AID 1650); assay type: functional; details: Chlorocebus sabaeus
[5] = alpha-synuclein stem-loop luciferase translation blockers – H4 neuroglioma cells, luminescence, confirmation (AID 1988); assay type: functional, cell-based
Cytochrome P450 1A2 = molecular target: T1, Cytochrome P450 1A2 (Homo sapiens, UniProt P05177);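 note: PubChem cytochrome P450 panel assay, CYP1A2 panel member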
T1 sequence (P05177 whole entry): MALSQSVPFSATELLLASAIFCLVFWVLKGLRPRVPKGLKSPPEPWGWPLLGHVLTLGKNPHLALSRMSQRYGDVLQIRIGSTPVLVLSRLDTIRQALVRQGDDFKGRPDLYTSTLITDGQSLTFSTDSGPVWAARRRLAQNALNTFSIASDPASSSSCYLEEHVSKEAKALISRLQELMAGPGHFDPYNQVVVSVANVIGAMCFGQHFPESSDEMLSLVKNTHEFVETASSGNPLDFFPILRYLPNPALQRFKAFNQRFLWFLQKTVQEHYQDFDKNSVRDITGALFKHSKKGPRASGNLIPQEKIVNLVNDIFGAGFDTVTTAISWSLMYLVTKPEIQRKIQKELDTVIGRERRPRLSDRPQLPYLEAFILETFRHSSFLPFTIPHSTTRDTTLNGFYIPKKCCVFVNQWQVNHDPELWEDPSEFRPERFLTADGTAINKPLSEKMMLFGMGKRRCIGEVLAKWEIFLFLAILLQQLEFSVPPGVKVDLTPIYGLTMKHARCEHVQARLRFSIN

[6] = NIH3T3 cell viability loss – ATP luminescence, mouse fibroblasts, counter-screen, dose response (AID 2010); assay type: functional, cell-based;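 note: cells exposed to compound for about 90 hours before reading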
Vero [7] = assay: cells; assay type: functional, cell-based; details: Chlorocebus sabaeus
[8] = Luminescence Cell-Based Dose Response HTS to Identify Inhibitors of 5'UTR Stem-Loop Driven Prion Protein mRNA Translation in H4 Neuroglioblastoma Cells. [Related pubchem assays: 1827 (Project Summary), 1813 (Primary HTS)]; assay type: functional
[9] = luciferase reporter signal suppression in cells – H4 neuroglioma cells, luminescence, dose response (AID 1990); assay type: functional, cell-based
[10] = Luminescent dose response cell-based high throughput screening assay for inhibitors of the Janus kinase 2 mutant JAK2V617F. [Related pubchem assays: 1446 (Primary screen.), 1521 (Confirmation assay.), 1486 (Counter screen.)]; assay type: functional
[11] = molecular target: Sphingosine 1-phosphate receptor 1 (Homo sapiens, UniProt P21453); assay type: functional;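 note: Tango beta-arrestin reporter U2OS cells stimulated with S1P near its EC80; inhibitor potency meaning antagonism of receptor activation by the natural agonist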
[12] = microbe, parasite or virus in culture; assay type: functional; details: Mycobacterium tuberculosis
[13] = molecular target: Luciferin 4-monooxygenase (Photinus pyralis, UniProt P08659); assay: inhibition of purified Photinus pyralis luciferase – biochemical, luminescence, dose response (AID 1891)
[14] = molecular target: T2, Sphingosine 1-phosphate receptor 4 (Homo sapiens, UniProt O95977); assay: Fluorescence dose response cell-based high throughput screening assay for antagonists of the Sphingosine 1-Phosphate Receptor 4 (S1P4). [Related pubchem assays: 1524 (Confirmation in triplicates.), 1510 (Primary screen.)]; assay type: functional
T2 sequence (O95977 whole entry): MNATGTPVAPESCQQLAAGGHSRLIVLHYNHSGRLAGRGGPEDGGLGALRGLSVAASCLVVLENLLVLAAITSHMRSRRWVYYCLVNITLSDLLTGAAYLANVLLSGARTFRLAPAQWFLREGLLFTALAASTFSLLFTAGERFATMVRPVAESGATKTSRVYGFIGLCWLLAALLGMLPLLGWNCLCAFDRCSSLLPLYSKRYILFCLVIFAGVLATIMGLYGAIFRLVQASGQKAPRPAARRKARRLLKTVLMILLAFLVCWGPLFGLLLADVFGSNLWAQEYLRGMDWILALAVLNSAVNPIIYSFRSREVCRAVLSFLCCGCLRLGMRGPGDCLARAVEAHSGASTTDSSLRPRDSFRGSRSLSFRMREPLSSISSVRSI

[15] = molecular target: T3, Heat shock factor protein 1 (Mus musculus, UniProt P38532); assay: enhancement of HSF1-driven luciferase signal – cell-based, NIH3T3, luminescence, dose retest, confirmation (AID 435004); assay type: functional;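 note: stress induced by proteasome inhibitor MG132 added 30 min after compound; luciferase reporter driven by HSF1 response element in NIH3T3 cells; actives raise luminescence as potentiators of the MG132 stress response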
T3 sequence (P38532 whole entry): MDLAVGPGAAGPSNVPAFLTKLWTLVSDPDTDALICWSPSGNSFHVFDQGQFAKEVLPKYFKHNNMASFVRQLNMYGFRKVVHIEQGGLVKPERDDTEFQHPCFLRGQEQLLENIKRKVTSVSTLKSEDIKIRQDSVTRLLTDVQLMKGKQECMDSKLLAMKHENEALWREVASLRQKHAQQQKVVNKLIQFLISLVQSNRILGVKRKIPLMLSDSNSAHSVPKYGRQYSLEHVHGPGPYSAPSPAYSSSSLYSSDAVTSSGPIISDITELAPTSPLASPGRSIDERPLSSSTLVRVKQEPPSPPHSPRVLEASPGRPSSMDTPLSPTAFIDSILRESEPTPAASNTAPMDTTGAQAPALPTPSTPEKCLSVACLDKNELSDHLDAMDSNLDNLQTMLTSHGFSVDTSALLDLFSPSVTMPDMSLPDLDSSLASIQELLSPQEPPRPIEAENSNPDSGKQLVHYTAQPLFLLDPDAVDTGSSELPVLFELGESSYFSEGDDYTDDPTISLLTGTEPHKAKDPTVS

[16] = molecular target: T2, Sphingosine 1-phosphate receptor 4; assay: Late stage fluorescence dose response cell-based screening assay for antagonists of the Sphingosine 1-Phosphate Receptor 4 (S1P4). [Related pubchem assays: 1524 (Confirmation screen (S1P4 antagonists).), 1510 (Primary screen (S1P4 antagonists).), 1853 (Summary AID (S1P4 antagonists).), 1692 (Dose response screen (S1P4 antagonists).)]; assay type: functional
[17] = Luminescence Cell-Based Dose Confirmation HTS to Identify Inhibitors of Platelet Dense Granule Release. [Related pubchem assays: 1663 (Primary HTS), 1678 (Summary of Project)]; assay type: functional
Danio rerio = assay: In Vivo Angiogenesis Dose-Response Confirmation. [Related pubchem assays: 732 (Assay preceding this confirmatory assay.)]; assay type: functional, organism-based
Cytochrome P450 2C9 [18] = molecular target: T4, Cytochrome P450 2C9 (Homo sapiens, UniProt P11712)
Cytochrome P450 2C19 = Cytochrome P450 2C19 (Homo sapiens, UniProt P33261); assay: Cytochrome panel assay with activity outcomes. Panel member name: p450-cyp2c19 Compounds with AC50 equal or less than 10 uM are considered active; assay type: functional; details: read-out: AC50
Cytochrome P450 2C9 [19] = molecular target: T4, Cytochrome P450 2C9; details: Potency
[20] = molecular target: Voltage-gated inwardly rectifying potassium channel KCNH2 (Homo sapiens, UniProt Q12809); assay: concentration-dependent hERG rescue from blockers – cell-based, thallium flux, dose response (AID 2121); assay type: ADME
[21] = molecular target: Glyceraldehyde-3-phosphate dehydrogenase (Homo sapiens, UniProt P04406)
Bcl-2-related protein A1 [22] = molecular target: T5, Bcl-2-related protein A1 (Mus musculus, UniProt Q07440); assay: small-molecule antagonists of Bfl-1/BH3 interaction – biochemical, TR-FRET, mouse Bfl-1, confirmation (AID 621);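 note: TR-FRET binding of GST-Bfl-1 to FITC-labelled Bid peptide via terbium antibody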
T5 sequence (Q07440 whole entry): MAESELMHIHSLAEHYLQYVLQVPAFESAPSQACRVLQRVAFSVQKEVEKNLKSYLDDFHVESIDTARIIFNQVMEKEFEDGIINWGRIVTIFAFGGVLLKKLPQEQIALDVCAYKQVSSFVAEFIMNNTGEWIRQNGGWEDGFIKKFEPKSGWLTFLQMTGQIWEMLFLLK

Bcl-2-related protein A1 [23] = molecular target: T5, Bcl-2-related protein A1; assay: Bfl-1 binding inhibitors, SAR follow-up, biochemical, fluorescence polarization (AID 1070)
14-3-3 protein gamma = 14-3-3 protein gamma (Homo sapiens, UniProt P61981); assay: modulators of 14-3-3 gamma client binding – dose response (AID 711); assay type: functional
[24] = molecular target: T6, Replicative DNA helicase DnaB (Mycobacterium tuberculosis, UniProt P9WMR3); assay: DnaB intein splicing inhibitors, dose response, biochemical, cell-free fluorescence (AID 449749); assay type: functional
T6 sequence (P9WMR3 whole entry): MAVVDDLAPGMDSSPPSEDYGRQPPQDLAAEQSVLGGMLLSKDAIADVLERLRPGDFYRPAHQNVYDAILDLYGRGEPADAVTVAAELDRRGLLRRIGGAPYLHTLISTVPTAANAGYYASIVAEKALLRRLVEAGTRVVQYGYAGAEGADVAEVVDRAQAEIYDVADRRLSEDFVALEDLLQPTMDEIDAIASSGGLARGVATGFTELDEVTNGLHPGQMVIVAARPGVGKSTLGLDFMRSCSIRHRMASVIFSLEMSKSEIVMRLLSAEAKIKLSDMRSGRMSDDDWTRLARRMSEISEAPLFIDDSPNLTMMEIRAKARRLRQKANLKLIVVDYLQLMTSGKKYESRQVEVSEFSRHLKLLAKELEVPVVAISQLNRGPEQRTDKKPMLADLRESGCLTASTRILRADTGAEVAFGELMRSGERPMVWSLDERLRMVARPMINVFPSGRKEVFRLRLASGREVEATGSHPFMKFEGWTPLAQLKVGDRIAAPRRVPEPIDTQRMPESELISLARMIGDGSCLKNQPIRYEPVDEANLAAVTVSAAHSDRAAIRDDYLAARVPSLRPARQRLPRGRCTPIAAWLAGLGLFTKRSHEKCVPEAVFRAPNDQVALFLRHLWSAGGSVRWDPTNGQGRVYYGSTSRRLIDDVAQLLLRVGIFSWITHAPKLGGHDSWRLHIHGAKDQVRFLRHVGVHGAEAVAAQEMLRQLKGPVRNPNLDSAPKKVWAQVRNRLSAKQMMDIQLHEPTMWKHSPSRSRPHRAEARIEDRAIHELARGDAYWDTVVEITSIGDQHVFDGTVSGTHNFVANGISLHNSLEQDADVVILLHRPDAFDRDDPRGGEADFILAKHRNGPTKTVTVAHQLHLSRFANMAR

Protein RecA = molecular target: T7, Protein RecA (Mycobacterium tuberculosis, UniProt P9WHJ3); assay: Fluorescence Cell-Free Homogeneous Dose Retest to Identify Inhibitors of RecA-Intein Splicing Activity. [Related pubchem assays (depositor defined):AID2097, AID2223, AID489010, AID492950]; assay type: functional
T7 sequence (P9WHJ3 whole entry): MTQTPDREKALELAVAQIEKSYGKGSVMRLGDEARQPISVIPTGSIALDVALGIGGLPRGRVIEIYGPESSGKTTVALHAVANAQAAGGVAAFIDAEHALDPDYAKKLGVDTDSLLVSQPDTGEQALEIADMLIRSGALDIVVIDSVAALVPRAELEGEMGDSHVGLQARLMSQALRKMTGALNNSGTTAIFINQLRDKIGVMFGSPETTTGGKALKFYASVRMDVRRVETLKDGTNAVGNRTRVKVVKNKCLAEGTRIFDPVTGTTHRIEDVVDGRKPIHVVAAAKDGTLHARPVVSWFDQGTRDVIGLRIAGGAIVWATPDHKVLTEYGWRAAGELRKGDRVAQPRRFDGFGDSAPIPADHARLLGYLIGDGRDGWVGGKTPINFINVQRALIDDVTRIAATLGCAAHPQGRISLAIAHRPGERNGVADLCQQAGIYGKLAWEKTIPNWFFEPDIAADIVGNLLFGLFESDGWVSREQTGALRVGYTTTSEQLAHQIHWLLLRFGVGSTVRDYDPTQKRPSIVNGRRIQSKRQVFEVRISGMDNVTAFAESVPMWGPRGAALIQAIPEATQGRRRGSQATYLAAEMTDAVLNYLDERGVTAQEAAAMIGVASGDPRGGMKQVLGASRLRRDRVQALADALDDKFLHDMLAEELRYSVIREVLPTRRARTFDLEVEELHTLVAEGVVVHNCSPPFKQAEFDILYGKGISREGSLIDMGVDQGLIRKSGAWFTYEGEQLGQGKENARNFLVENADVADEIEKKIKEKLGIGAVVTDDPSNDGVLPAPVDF

Bcl-2-related protein A1 [25] = molecular target: T5, Bcl-2-related protein A1; assay: displacement of Bid BH3 peptide from Bfl-1 – biochemical, fluorescence polarization, FITC-Bid, mouse, primary screen (AID 432)

T4 sequence (P11712 whole entry): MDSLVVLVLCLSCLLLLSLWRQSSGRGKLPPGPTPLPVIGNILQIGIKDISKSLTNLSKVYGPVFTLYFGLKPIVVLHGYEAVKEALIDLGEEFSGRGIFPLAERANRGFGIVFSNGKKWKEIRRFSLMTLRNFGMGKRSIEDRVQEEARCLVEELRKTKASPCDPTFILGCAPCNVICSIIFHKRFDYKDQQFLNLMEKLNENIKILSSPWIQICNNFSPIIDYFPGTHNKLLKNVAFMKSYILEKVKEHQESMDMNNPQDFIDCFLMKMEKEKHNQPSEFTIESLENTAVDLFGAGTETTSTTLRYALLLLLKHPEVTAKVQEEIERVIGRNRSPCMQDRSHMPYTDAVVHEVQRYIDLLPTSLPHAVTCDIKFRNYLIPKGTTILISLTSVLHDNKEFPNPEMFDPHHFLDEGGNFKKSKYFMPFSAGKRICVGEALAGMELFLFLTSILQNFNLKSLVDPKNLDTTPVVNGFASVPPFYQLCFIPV
Luciferin 4-monooxygenase, sequence (P08659 whole entry): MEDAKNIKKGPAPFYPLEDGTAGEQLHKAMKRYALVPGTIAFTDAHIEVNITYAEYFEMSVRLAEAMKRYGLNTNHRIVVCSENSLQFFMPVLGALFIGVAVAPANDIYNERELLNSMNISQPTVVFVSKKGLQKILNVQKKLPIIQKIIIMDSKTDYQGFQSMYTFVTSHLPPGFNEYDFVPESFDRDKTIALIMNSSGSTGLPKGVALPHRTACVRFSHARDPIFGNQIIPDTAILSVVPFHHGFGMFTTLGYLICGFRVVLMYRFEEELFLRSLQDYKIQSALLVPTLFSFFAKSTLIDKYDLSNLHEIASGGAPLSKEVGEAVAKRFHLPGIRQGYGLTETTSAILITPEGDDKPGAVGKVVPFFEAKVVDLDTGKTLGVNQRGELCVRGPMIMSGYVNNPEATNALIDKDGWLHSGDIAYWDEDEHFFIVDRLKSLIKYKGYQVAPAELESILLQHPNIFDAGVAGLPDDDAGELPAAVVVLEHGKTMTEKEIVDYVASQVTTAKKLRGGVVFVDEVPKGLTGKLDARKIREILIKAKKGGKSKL
14-3-3 protein gamma, sequence (P61981 whole entry): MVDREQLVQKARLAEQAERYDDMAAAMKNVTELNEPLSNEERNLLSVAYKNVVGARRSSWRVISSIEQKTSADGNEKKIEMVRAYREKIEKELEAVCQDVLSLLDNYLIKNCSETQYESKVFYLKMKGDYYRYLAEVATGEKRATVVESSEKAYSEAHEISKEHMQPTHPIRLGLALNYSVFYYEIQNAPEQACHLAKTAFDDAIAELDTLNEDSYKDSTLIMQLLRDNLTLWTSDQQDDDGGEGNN
Glyceraldehyde-3-phosphate dehydrogenase, sequence (P04406 whole entry): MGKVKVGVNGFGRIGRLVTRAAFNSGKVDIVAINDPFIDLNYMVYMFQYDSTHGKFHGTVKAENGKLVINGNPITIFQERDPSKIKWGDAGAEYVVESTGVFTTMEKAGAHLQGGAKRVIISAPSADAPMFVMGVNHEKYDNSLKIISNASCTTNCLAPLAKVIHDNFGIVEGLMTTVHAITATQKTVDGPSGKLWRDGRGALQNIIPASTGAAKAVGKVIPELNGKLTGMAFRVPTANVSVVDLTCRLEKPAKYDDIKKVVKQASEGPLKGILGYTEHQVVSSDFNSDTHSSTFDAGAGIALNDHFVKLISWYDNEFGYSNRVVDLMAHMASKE
Sphingosine 1-phosphate receptor 1, sequence (P21453 whole entry): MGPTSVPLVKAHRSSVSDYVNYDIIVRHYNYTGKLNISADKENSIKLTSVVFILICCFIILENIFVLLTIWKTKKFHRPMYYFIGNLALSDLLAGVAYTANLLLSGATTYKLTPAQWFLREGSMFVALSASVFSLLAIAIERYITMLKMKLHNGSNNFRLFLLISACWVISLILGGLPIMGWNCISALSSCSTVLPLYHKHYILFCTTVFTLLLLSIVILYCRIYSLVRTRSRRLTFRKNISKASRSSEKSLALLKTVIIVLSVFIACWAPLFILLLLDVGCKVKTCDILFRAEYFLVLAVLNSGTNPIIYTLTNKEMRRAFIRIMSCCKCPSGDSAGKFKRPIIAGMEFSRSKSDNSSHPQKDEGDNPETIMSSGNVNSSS
Cytochrome P450 2C19, sequence (P33261 whole entry): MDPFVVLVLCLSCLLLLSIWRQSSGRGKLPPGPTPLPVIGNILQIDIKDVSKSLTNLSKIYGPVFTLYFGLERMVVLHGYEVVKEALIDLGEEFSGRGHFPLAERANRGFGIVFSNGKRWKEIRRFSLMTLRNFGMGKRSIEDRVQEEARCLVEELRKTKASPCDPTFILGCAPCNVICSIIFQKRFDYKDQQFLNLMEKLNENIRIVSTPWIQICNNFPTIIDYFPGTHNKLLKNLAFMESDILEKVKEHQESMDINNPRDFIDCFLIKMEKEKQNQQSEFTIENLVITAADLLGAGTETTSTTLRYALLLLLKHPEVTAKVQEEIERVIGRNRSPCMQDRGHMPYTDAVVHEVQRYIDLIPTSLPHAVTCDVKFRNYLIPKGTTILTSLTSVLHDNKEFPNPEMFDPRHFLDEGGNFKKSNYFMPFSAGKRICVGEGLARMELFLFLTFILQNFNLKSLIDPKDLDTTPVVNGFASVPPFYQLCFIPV
Voltage-gated inwardly rectifying potassium channel KCNH2, sequence (Q12809 whole entry): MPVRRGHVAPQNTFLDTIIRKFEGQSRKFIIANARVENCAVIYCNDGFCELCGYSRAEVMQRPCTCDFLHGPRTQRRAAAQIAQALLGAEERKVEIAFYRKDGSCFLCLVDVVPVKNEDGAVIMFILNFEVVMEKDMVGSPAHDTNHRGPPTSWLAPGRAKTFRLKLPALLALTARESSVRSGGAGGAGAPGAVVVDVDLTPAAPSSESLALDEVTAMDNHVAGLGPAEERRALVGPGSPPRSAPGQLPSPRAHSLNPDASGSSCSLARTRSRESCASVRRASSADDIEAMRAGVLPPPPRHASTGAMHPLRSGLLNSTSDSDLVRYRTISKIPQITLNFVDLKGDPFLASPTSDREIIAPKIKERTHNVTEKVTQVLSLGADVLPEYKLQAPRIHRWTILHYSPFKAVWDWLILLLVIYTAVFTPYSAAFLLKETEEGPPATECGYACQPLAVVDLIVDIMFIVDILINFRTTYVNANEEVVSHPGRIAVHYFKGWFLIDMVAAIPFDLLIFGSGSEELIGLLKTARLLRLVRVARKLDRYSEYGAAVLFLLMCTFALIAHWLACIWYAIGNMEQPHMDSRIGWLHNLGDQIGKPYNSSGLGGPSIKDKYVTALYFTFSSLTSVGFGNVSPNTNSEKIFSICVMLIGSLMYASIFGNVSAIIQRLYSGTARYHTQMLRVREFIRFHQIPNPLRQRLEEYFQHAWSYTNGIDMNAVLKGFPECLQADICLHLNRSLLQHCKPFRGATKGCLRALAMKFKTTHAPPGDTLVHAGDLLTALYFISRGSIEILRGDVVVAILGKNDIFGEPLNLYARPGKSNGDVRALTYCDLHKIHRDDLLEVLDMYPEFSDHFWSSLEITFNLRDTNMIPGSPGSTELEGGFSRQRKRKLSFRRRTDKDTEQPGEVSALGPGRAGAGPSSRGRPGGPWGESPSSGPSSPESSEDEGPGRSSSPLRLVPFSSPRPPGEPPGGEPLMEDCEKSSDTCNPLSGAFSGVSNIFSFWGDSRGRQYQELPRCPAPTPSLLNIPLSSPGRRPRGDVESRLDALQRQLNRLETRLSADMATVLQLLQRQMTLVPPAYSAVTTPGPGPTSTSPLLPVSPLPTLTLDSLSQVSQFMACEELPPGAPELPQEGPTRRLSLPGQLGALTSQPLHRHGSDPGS

OC1c2c(F)cccc2N=C2CCCCCN21 (configuration not stated)
CC50 (Vero [1]): > 200 µM (active)

COc1c(C)c2c(c(O)c1C/C=C(\C)CCC(=O)O)C(=O)OC2 [MYCOPHENOLIC ACID]
EC50 [2]: 1.64 µM (active) | CC50 (Vero [3]): 9.68 µM (active) | CC50 (Vero [4]): 4.61 µM (active) | EC50 [5]: 8.2 µM (active) | AC50 (Cytochrome P450 1A2): 15.8 µM (inconclusive) | EC50 [6]: 10.9 µM (active) | IC50 (Vero [7]): < 0.05 µM (active) | EC50 [8]: 0.116 µM (active) | EC50 [9]: 10.2 µM (active)

O=C(C=C=Nc1ccccc1)C(=O)N=C=Cc1ccccc1
IC50 [10]: 1.91 µM (active) | CC50 (Vero [3]): 18.9 µM (active) | IC50 [11]: > 49.8 µM (not active) | CC50 [12]: 16.6 µM (active) | EC50 [13]: > 112 µM (not active) | IC50 [14]: 0.972 µM (active) | EC50 [15]: 5.61 µM (inconclusive) | IC50 [16]: 4.55 µM (not active) | EC50 [17]: 47 µM (active)

O=Nc1c(-c2c(O)[nH]c3ccccc23)[nH]c2ccccc12 [INDIRUBIN-3-MONOXIME]
IC50 (Danio rerio): 0.31 µM (active) | AC50 (Cytochrome P450 2C9 [18]): 39.8 µM (inconclusive) | AC50 (Cytochrome P450 2C19): 39.8 µM (inconclusive) | AC50 (Cytochrome P450 2C9 [19]): 12.6 µM (inconclusive)

C/C(Nc1cccc(F)c1)=C(/C#N)C(N)=O
EC50 [20]: 0.88 µM (active)

CS(=O)(=O)c1nc(-c2ccc3ccccc3c2)cc(C(F)(F)F)n1
IC50 [21]: > 100 µM (not active) | IC50 (Bcl-2-related protein A1 [22]): > 100 µM (not active) | IC50 (Bcl-2-related protein A1 [23]): > 100 µM (not active)

NC(=O)c1c(-c2cccs2)csc1N
IC50 (14-3-3 protein gamma): > 50 µM (not active) | AC50 [24]: > 380 µM (inactive) | EC50 (Protein RecA): 1.02 µM (active)

COC(=O)Cn1c2c(c3cc(C)ccc31)CCCC2
IC50 (Bcl-2-related protein A1 [22]): > 100 µM (not active) | IC50 (Bcl-2-related protein A1 [25]): > 100 µM (not active)
